Data taken from patent US8580789B2, “Treating glaucoma” (The Cleveland Clinic Foundation, priority 2007, dated 2013).
Where “and” joins values, the source holds several entries; their conditions need not be identical. Equal entries are not always repeated.

Experiments:
peripapillary sclera [1] = experiment: Surface wave velocity (stiffness) of the peripapillary sclera of whole globes, Sonic Eye elastometer; set-up: species or system porcine; conditions: for Mean PPS Stiffness, After Glutaraldehyde Crosslinking: Example 2, GTA annular sponge on PS only ~30 min; for Stiffness of Peripapillary Sclera, Post-crosslinking Mean ± SD: 4% GTA on PS only 30 min
Experimental: Surface wave velocity (SWV) is a measure of tissue stiffness, and is performed by detecting the velocity of an ultrasonic wave between 2 points (Sonic Eye, Priavision, Menlo Park, Calif.) (Dupps W J, et al., J Refract Surg; 23: 66-75 (2007)). 19 porcine eyes were divided into 2 groups. In group 1 (6 eyes), the SWV across the exposed optic nerve/lamina cribrosa complex (ON/LCC) was initially measured at the eyes' physiologic IOP and at 100 mmHg. The porcine globes were cannulated with IV tubing to facilitate the change in IOP. In group 2 (13 eyes), the pre-treatment SWV was measured across the same region and atop the peri-papillary sclera, after which both regions were treated with riboflavin 1%, Q 5 min×6, and UVA irradiation (˜365 nm at 3 mW/cm^2) for 30 min per eye. The SWV was then re-measured in each eye at the pre-treatment IOP and at 100 mmHg.
An annular sponge soaked in GTA was exposed to the peripapillary sclera for ˜30 minutes, and not the ON/LCC. Measurements were repeated as above, but also along each quadrant of peripapillary sclera to ensure uniformity and symmetry of crosslinking around the ON/LCC. The results are summarized as follows:
(§1) Eighteen porcine globes were divided evenly into 3 groups. The optic nerves were transected to expose the ON/LC, and each globe was infused through an in-line pressure transducer for direct IOP control. Surface wave velocity, a non-destructive measure of tissue stiffness, was measured across the ON/LC and PS before and after collagen crosslinking at IOP of 10 and 30 mmHg (groups 1 and 2) and at each globe's preinflation IOP and 80 mmHg (group 3). In group 3, papillary strain was measured by analyzing the displacement of fiducial marks immediately adjacent to the ON/LC using digital photography.
Surface wave velocity (SWV) is a measure of tissue stiffness that has been used in dermatologic applications to measure age-related changes (Potts R O, et al., J Invest Dermatol.; 82(1):97-100 (1984); Potts R O, et al., J Biomech.; 16(6):365-372 (1983); Davis B R, et al., Exp Gerontol; 24(3):201-210 (1989)), softening effects of tissue hydration and skin creams (Vexler A, et al., J Invest Dermatol; 113(5):732-739 (1999)), and sclerosing effects of radiation on breast skin (Gorodetsky R, et al., Int J Radiat Oncol Biol Phys.; 45(4):893-900 (1999)). When acoustic waves in the 0.5 to 30 kHz frequency range are used, propagation speed in skin is related to the density and stiffness of the tissue (Pereira J M, et al., J Biomech.; 23(8):745-751 (1990)). A prototype handheld ocular surface elastometer (Sonic Eye, Priavision, Menlo Park, Calif.) with an operating frequency within this range (4 kHz) and a fixed 4.5 mm wave propagation distance has been described in detail elsewhere (Dupps W J Jr, et al., J Refract Surg.; 23(1):66-75 (2007)). The Sonic Eye was used in this study as a non-destructive means of measuring local in situ tissue stiffness across and around the optic nerve head.
Eighteen porcine eyes were obtained from a local abattoir (Heffelfingers Meats, Inc., Jeromesville, Ohio) and were used within 24 hours postmortem. The optic nerves were dissected under microscopic visualization to expose the ON/LC (FIG. 1). […] Replicate SWV measurements were obtained at a rate of 1 per second with a triggering foot pedal to produce at least 5 measurements that were subsequently averaged for each region of interest. A PC software interface converted the time-of-flight data to velocity in meters per second (m/s), and the velocity data were exported to Excel (v. 11, SP2; Microsoft Corp, Redmond, Wash.) and Minitab (v. 14.20; Minitab Inc, State College, Pa.) for statistical analysis.
Three experimental groups of 6 eyes each were defined. In group 1, SWV across the optic nerve/lamina cribrosa complex and peripapillary scleral regions of interest were measured at 10 and 30 mmHg to represent a physiological range of pressures. […]

[2] = tested on: optic nerve/lamina cribrosa complex; experiment: Photographic circumferential strain analysis during IOP elevation, ON/LC; set-up: species or system porcine; conditions: Group 3; GTA on PS only; IOP 2-4 to 80 mmHg
Experimental: as §1
(§2) In group 3 (n=6), the same procedure described for group 2 was implemented with the following exceptions. First, four fiducial ink marks were placed in each quadrant of the PS immediately adjacent to the ON/LC prior to measurement. High-resolution (7.1 megapixel) digital photos were then taken at both low and high IOP before and after crosslinking. The vertical and horizontal distances between the outer extent of the ink marks and the outer margins of the optic nerve were measured in Photoshop (Adobe Systems, Inc., San Jose, Calif.), and the centripetal displacement of the fiducial marks (Δ1) was divided by the initial distance between the marks (10) to yield dimensionless indicators of circumferential strain (ζ=Δ1/10) in the peripapillary sclera and ON/LC, respectively. Second, measurements were acquired at each eye's pre-inflation pressure (between 2 to 4 mmHg) and at 80 mmHg to ensure that measurable changes in SWV and ON/LC geometry would be generated in at least one experimental group. As in group 2, the peripapillary sclera was selectively exposed to GTA and post-crosslinking measurements were repeated at low and high IOP. Same-eye statistical comparisons of wave velocity and strain were performed with paired student's t-tests.

peripapillary sclera [3] = experiment: Photographic circumferential strain analysis during IOP elevation, peripapillary sclera; set-up: species or system porcine; conditions: Group 3; GTA on PS only; IOP 2-4 to 80 mmHg
Experimental: as §1, §2

porcine sclera = conditions: scleral strips; 1 hour glutaraldehyde, 5 days glyceraldehydes, 30 minutes UVA for riboflavin/UVA; cited from earlier work
human sclera = conditions: scleral strips; 1 hour glutaraldehyde, 5 days glyceraldehydes, 30 minutes UVA for riboflavin/UVA; cited from earlier work

In the case of `O=CCCCC=O` [GTA, glutaraldehyde], the “Mean PPS Stiffness, After Glutaraldehyde Crosslinking” value (peripapillary sclera [1]; mean IOP 3 mmHg) is reported as 83.6 m/s, the “Mean PPS Stiffness, After Glutaraldehyde Crosslinking” value (peripapillary sclera [1]; mean IOP 80 mmHg) is reported as 97.9 m/s and the “Stiffness of Peripapillary Sclera, Post-crosslinking Mean ± SD” value (from here on “Stiffness … Post-crosslinking Mean ± SD”) (peripapillary sclera [1]; Example 3 Group 2, High IOP 30 mmHg) is reported as 197.0±35.6 m/s. For the same compound, the “Stiffness … Post-crosslinking Mean ± SD” value (peripapillary sclera [1]; Example 3 Group 2, Low IOP 10 mmHg) was 148.4±43.0 m/s, the “Stiffness … Post-crosslinking Mean ± SD” value (peripapillary sclera [1]; Example 3 Group 3, High IOP 80 mmHg) was 190.2±45.8 m/s and the “Stiffness … Post-crosslinking Mean ± SD” value (peripapillary sclera [1]; Example 3 Group 3, Low IOP = pre-inflation 2-4 mmHg) was 149.9±35.7 m/s. For the same compound, the “Average Circumferential Strain of ON/LC with IOP elevation, Post-Crosslinking Mean ± SD” value [2] was 0.0 ± 0.0%, the “Horizontal Circumferential Strain of ON/LC with IOP elevation, Post-Crosslinking Mean ± SD” value [2] was 0.0 ± 0.0% and the “Vertical Circumferential Strain of ON/LC with IOP elevation, Post-Crosslinking Mean ± SD” value [2] was 0.0 ± 0.0%. For the same compound, the “Average Circumferential Strain of PS with IOP elevation, Post-Crosslinking Mean ± SD” value (peripapillary sclera [3]) was 0.38% and 0.4 ± 1.3%, the “Horizontal Circumferential Strain of PS with IOP elevation, Post-Crosslinking Mean ± SD” value (peripapillary sclera [3]) was 0.0 ± 0.0% and the “Vertical Circumferential Strain of PS with IOP elevation, Post-Crosslinking Mean ± SD” value (peripapillary sclera [3]) was 0.7 ± 1.9%. The “Rise in porcine scleral stress (rigidity)” value (porcine sclera) was 8 × and the “Rise in human scleral stress (rigidity)” value (human sclera) was 122%.
